Experimental findings from US20110152358A1, “Compositions and Methods for Diagnosis and Treatment of Pancreatic Ductal Cancer” (priority 2008, published 2011) are described below.

Common to all, as to format: cell-based, human
The test system of assay [1] is T3M4 cells. As to the kind of experiment: Matrigel cell invasion assay, shRNA infected T3M4 cells. To be noted: 18 hours. The procedure: (§1) Cell invasion was measured as reported previously, with some modification (Rowland-Goldsmith, M. A. et al. 2001. Clin. Cancer Res. 7:2931-2940). Briefly, cells were suspended in 500 μL of serum-free medium (0.1% BSA) and placed onto the upper compartment of Matrigel-coated transwell chambers (8 μm pore sized, BioCoat Matrigel Invasion Chambers, BD Biosciences, San Jose, Calif.). The lower compartment was filled with 750 μL of medium containing serum free media in the absence or presence of the respective growth factors. After 18-20 hours, cells on the upper surface of the filter were carefully removed with a cotton swab and the membranes were fixed in methanol. The cells that had migrated through the membrane to the lower surface of the filter were stained with toluidine blue (Fisher Scientific, Fair Lawn, N.J.) and counted using a light microscope.

Assay [2] deals with PANC-1 cells. As to the kind of experiment: Matrigel cell invasion assay, sham and 14-3-3σ overexpressing PANC-1 clones. The note with it: 20 hours. The procedure: as §1
The test system of assay [3] is PANC-1 cells. Briefly: MTT assay, survival of PANC-1 clones with cisplatinum. To be noted: 10 μg/mL cisplatinum; 48 hours. The procedure:
Sham-transfected PANC-1 cells and 14-3-3σ transfected clones (1×10^4) were plated in 96-well plates (six wells per sample). Cells were allowed to attach and grow for 48 hours in complete medium, and then treated with complete medium in the absence or presence of 10 μg/mL of cisplatinum (Sigma) for 48 hours, followed by the addition of MTT (3-[4,5-dimethylthiazol-2-yl]-2,5-diphenyltetrazolium bromide) (Sigma) at a final concentration 0.55 μg/mL. After an additional 4 hour incubation, absorbance at 570 nm was determined, with a reference of 650 nm, using a Emax precision microplate reader (Molecular devices, Sunnyvale, Calif.), as previously reported (Arnold, N. B. et al. 2004. Cancer Res. 64:3599-3606). It was previously determined that in pancreatic cancer cell lines the MTT assay correlates closely with cell growth as determined by cell counting and by assessing [^3H]thymidine incorporation (Raitano, A. B. and M. Korc. 1990. J. Biol. Chem. 265:10466-10472; Baldwin, R. L. and M. Korc. 1993. Growth Fact. 8:23-34).

Assay [4] deals with T3M4 cells. As to the kind of experiment: cisplatinum induced apoptosis, immunoblot of cleaved PARP and cleaved caspase-3, shRNA infected T3M4 cells. To be noted: cisplatinum 10 νg/mL for 2, 6, or 24 hours. The protocol:
(§2) Sham or 14-3-3σ transfected PANC-1 cells were incubated for 24 hours in complete medium in the absence or presence of 10 μg/mL of cisplatinum. Scrambled or 14-3-3σ specific shRNA infected T3M4 cells were incubated in complete medium for 24 hours that was supplemented with 10 μg/mL cisplatinum for the initial 2 or 6 hours, or the entire 24 hours. Both floating and adherent cells were then collected and lysed in the buffer containing protease inhibitors, subjected to 10% SDS-PAGE, and immunoblotted with specific antibodies against cleaved Poly (ADP-ribose) Polymerase (PARP) and cleaved caspase-3 (Cell Signaling Technology, Danvers, Mass.).
Background: A western blot detects proteins with antibodies after separation by electrophoresis.

In assay [5] the test system is PANC-1 cells. Briefly: cisplatinum induced apoptosis, immunoblot of cleaved PARP and cleaved caspase-3, PANC-1 clones. To be noted: 10 μg/mL cisplatinum; 24 hours. The procedure:
as §2

Assay [6] concerns T3M4 cells. As to the kind of experiment: in vitro wound-healing (migration) assay, shRNA infected T3M4 cells. The note with it: EGF 1 nmol/L; 24 hours; control shRNA, sh1 or sh2 infected cells; percentage change in wound area. The protocol:
(§3) To assess the motility properties, in vitro wound-healing assays or migration assays were performed. Cells were grown to confluence in 6-well tissue culture plates, serum starved overnight, and the monolayer was scratched with a 200 μL pipette tip generating two parallel wounds. The scratched wells were washed to remove cell debris and incubated for the next 24 hours in serum free media in the absence or presence 1 nmol/L EGF with or without the Src family kinase inhibitor PP2 (4-amino-5-(4-chlorophenyl)-7-(t-butyl)pyrazolo[3,4-d]pyrimidine) (Alexis, La Jolla, Calif.). To monitor cell migration, photographs were taken of each well at five marked locations under 40× magnification immediately after wounding (t0) and again 24 hours after wounding (t24), using an inverted microscope fitted with a digital camera (Nikon Diaphot 300, Nikon, Japan). The wound area of five matched pictures at t0 and t24 from each well were then measured using the ImageJ software (NIH, Bethedsa, Md.), and the percentage change in the wound area was calculated.

Assay [7] has as its system PANC-1 cells. As to the kind of experiment: in vitro wound-healing (migration) assay, sham and 14-3-3σ overexpressing PANC-1 clones. The note with it: EGF 1 nmol/L; serum free media; 24 hours. The protocol: as §3

Entries after “also recorded” stand apart in the source; their conditions may differ.

For `COc1cc2ncnc(Nc3cccc(Br)c3)c2cc1OC` [AG 1517, reference compound], the “effect on EGF induced invasion in 14-3-3σ downregulated cells (sh2 infected)” value in the assay on T3M4 cells [1] (EGF 1 nmol/L, AG 1517 1 μmol/L, PP2 10 μmol/L) is “suppressed”.
Consider `C[S+]([O-])c1ccc(-c2nc(-c3ccncc3)c(-c3ccc(F)cc3)[nH]2)cc1` (stereo not drawn) [SB203580, reference compound], for which the “effect on EGF-mediated invasion in 14-3-3σ overexpressing clones” value with PANC-1 cells [2] (EGF 1 nmol/L, LY 294002 5 μmol/L, SB 203580 10 μmol/L, PP2 10 μmol/L, clone C1) was “suppressed; also recorded: completely blocked”.
For `N.N.[Cl][Pt][Cl]` [cisplatinum], the “survival of 14-3-3σ overexpressing clones compared with Sham (MTT)” value with PANC-1 cells [3] was “significant (p<0.01) increase”. Further, the “apoptosis (PARP cleavage, caspase-3 activation) in 14-3-3σ silenced cells compared to non-silenced cells” value in the assay on T3M4 cells [4] is on record as “increased apoptosis”. Also, in the assay with PANC-1 cells [5], the “PARP cleavage in 14-3-3σ overexpressing clones compared with sham transfected cells” value is listed as “attenuated” and the “generation of cleaved caspase-3 in 14-3-3σ overexpressing clones compared with sham transfected cells” value is “markedly decreased”.
Take “EGF: EGF growth factor, ligand of the EGF receptor, added at 1 nmol/L (NSDSECPLSHDGYCLHDGVCMYIEALDKYACNCVVGYIGERCQYRDLKWWELR; UniProt P01133 971-1023, looked up)”: the EGF stimulated motility entry in the assay on T3M4 cells [6] is listed as “about 50%”. Moreover, the “invasion in 14-3-3σ downregulated cells (sh2 infected) compared to control shRNA infected cells” value in the assay on T3M4 cells [1] (EGF 1 nmol/L) was “marked increase”. In the assay with PANC-1 cells [7], the “motility of 14-3-3σ overexpressing cells” value is “did not cause an additional increase in motility” and the “motility of sham-transfected cells” value was “slight but significant increase”. For the same compound, the “invasion of sham transfected cells” value in the assay on PANC-1 cells [2] (EGF 1 nmol/L) is recorded as “not statistically significant”. In the assay with PANC-1 cells [2] (EGF 1 nmol/L, clones C1 and C7), the “invasion of 14-3-3σ overexpressing clones” value was “markedly enhanced”.
With “IGF-1: IGF-1 growth factor used as chemoattractant at 1 nmol/L”, in the assay with T3M4 cells [1] (IGF-1 1 nmol/L, non-silenced T3M4), the “IGF-1-mediated invasion in presence of endogenously high levels of 14-3-3σ” value was “robust”. Also, the “IGF-1 effect on invasion in T3M4 cells in which 14-3-3σ was silenced” value in the assay with T3M4 cells [1] (IGF-1 1 nmol/L, sh1 or sh2 infected) is reported as “markedly attenuated; also recorded: completely suppressed”. In addition, in the assay with PANC-1 cells [2] (IGF-1 1 nmol/L), the “invasion of PANC-1 clones overexpressing 14-3-3σ compared to sham cells” value is “significantly increased”.
